Assay results: patent US20200138854A1, “Method of Detecting and Quantifying Bile Acid from Saliva” (Ironwood Pharmaceuticals, Inc., priority 2017, published 2020)
Values joined by “and” are separate entries in the source; they are usually repeats but may differ in a detail not shown here. Equal entries are not always repeated. Values belong to the compound of their own block, whether it stands above or below them.

Tests used:
[1] = Long-term (1 month at −20° C. and −80° C.) stability in untreated human saliva; details: for Long-term stability in untreated human saliva: at 80° C. (sic); for % Bias QC-High / Difference from Fresh (%) QC-High / Mean concentration QC-High / Concentration QC-High / Mean at Time Zero, Fresh QCs (Batch 34), QC-High / % CV QC-High / Fresh QCs (Batch 34) Mean at Time Zero, QC-High: untreated human saliva; for Concentration after long-term storage / Mean concentration after long-term storage: 1 Month; for Concentration after long-term storage / Mean concentration after long-term storage / % Bias / Difference from Fresh (%) / Fresh QCs (Batch 34) Mean at Time Zero: QC-High; for Concentration after long-term storage: individual values; for Mean concentration after long-term storage: n 3; for % Bias / Difference from Fresh (%): 1 month
[2] = Frozen (−20° C.) short-term stability in cholestyramine-treated human saliva; details: for % Bias QC-LLOQ / Mean concentration QC-LLOQ / Concentration QC-LLOQ: nominal 5.00 ng/mL; for % Bias QC-LLOQ / Mean concentration QC-LLOQ / Concentration QC-LLOQ / % Bias QC-Mid / Mean concentration QC-Mid / Concentration QC-Mid / % Bias QC-High / Mean concentration QC-High / Concentration QC-High: cholestyramine-treated human saliva; for Concentration QC-LLOQ / Concentration QC-Mid / Concentration QC-High: single determinations; for % Bias QC-High / Mean concentration QC-High / Concentration QC-High: nominal 800 ng/mL; for Mean concentration after frozen (−20° C.) storage: n 4; for Concentration: individual values
Experimental: Quality control samples for the evaluation of accuracy and precision and for run acceptance were prepared on the day of sample extraction. QC samples prepared in cholestyramine-treated saliva are to be prepared in small volumes for analysis. Stability for these QC samples would be limited to short-term storage (i.e., 2 days) whereas untreated human saliva would be evaluated for long-term storage.
For stability in cholestyramine-treated human saliva, samples were prepared by spiking cholestyramine-treated human saliva with each analyte at the QC-LLOQ, QC-Low, QC-Mid and QC-High levels. The samples were stored in a −20° C. freezer. After 1 day and 2 days of storage, each sample was extracted in replicates of four for analysis.

[3] = nominal 800 ng/mL, 1 month −20° C. storage
[4] = nominal 800 ng/mL, 1 month −80° C. storage
[5] = nominal 80.0 ng/mL, 1 Day frozen (−20° C.)
[6] = nominal 80.0 ng/mL, 2 Days frozen (−20° C.)
[7] = −20° C. Storage, nominal 80.0 ng/mL
[8] = −80° C. Storage, nominal 80.0 ng/mL
[9] = 1 month −20° C. storage, nominal 80.0 ng/mL
[10] = 1 month −80° C. storage, nominal 80.0 ng/mL
[11] = −20° C., 1 Day, QC-High, nominal 80.0 ng/mL
[12] = −20° C., 1 Day, QC-LLOQ, nominal 0.500 ng/mL
[13] = −20° C., 1 Day, QC-Mid, nominal 8.00 ng/mL
[14] = −20° C., 2 Days, QC-High, nominal 80.0 ng/mL
[15] = −20° C., 2 Days, QC-LLOQ, nominal 0.500 ng/mL
[16] = −20° C., 2 Days, QC-Mid, nominal 8.00 ng/mL

Long-term stability in untreated human saliva [1]: up to 1 month | Stability in Untreated Human Saliva ([1]; at −20° C.): 1 Month | Stability in Untreated Human Saliva ([1]; at −80° C.): 1 Month | % Bias QC-High [1, 3]: −15.1% | Difference from Fresh (%) QC-High [1, 3]: −13.5% | Mean concentration QC-High [1, 3]: 679 ng/mL | Concentration QC-High ([1]; nominal 800 ng/mL, 1 month −20° C. storage, single determinations): 693 ng/mL and 686 ng/mL and 659 ng/mL | % Bias QC-High [1, 4]: −15.7% | Difference from Fresh (%) QC-High [1, 4]: −14.1% | Mean concentration QC-High [1, 4]: 674 ng/mL | Concentration QC-High ([1]; nominal 800 ng/mL, 1 month −80° C. storage, single determinations): 701 ng/mL and 692 ng/mL and 630 ng/mL | Mean at Time Zero, Fresh QCs (Batch 34), QC-High ([1]; nominal 800 ng/mL, reference for −20° C. storage): 785 ng/mL | Mean at Time Zero, Fresh QCs (Batch 34), QC-High ([1]; nominal 800 ng/mL, reference for −80° C. storage): 785 ng/mL | Short-term stability in cholestyramine-treated human saliva [2]: up to 2 days | Stability in Treated Human Saliva [2]: 2 days | % Bias QC-LLOQ ([2]; 1 Day frozen (−20° C.)): 0.4% | Mean concentration QC-LLOQ ([2]; 1 Day frozen (−20° C.)): 5.02 ng/mL | % Bias QC-LLOQ ([2]; 2 Days frozen (−20° C.)): 18.3% | Mean concentration QC-LLOQ ([2]; 2 Days frozen (−20° C.)): 5.92 ng/mL | % Bias QC-Mid [2, 5]: 2.5% | Mean concentration QC-Mid [2, 5]: 82.0 ng/mL | % Bias QC-Mid [2, 6]: 4.6% | Mean concentration QC-Mid [2, 6]: 83.7 ng/mL | % Bias QC-High ([2]; 1 Day frozen (−20° C.)): −14.7% | Mean concentration QC-High ([2]; 1 Day frozen (−20° C.)): 683 ng/mL | % Bias QC-High ([2]; 2 Days frozen (−20° C.)): −9.3% | Mean concentration QC-High ([2]; 2 Days frozen (−20° C.)): 725 ng/mL
SMILES: C[C@H](CCC(=O)O)[C@H]1CC[C@H]2[C@@H]3[C@H](O)C[C@@H]4C[C@H](O)CC[C@]4(C)[C@H]3CC[C@]12C [Chenodeoxycholic Acid, Chenodeoxycholic acid]
Concentration QC-LLOQ ([2]; 1 Day frozen (−20° C.)): 4.72 ng/mL and 5.20 ng/mL and 4.89 ng/mL and 5.28 ng/mL | Concentration QC-LLOQ ([2]; 2 Days frozen (−20° C.)): 5.73 ng/mL and 6.15 ng/mL and 5.60 ng/mL and 6.18 ng/mL | Concentration QC-Mid [2, 5]: 85.9 ng/mL and 84.8 ng/mL and 78.0 ng/mL and 79.2 ng/mL | Concentration QC-Mid [2, 6]: 80.0 ng/mL and 87.1 ng/mL and 88.9 ng/mL and 78.8 ng/mL | Concentration QC-High ([2]; 1 Day frozen (−20° C.)): 644 ng/mL and 699 ng/mL and 671 ng/mL and 717 ng/mL | Concentration QC-High ([2]; 2 Days frozen (−20° C.)): 693 ng/mL and 777 ng/mL and 725 ng/mL and 706 ng/mL

SMILES: C[C@H](CCC(=O)O)[C@H]1CC[C@H]2[C@@H]3[C@H](O)C[C@@H]4C[C@H](O)CC[C@]4(C)[C@H]3C[C@H](O)[C@]12C [Cholic Acid, Cholic acid]
Concentration after long-term storage ([1]; −20° C. Storage, nominal 80.0 ng/mL, run 35): 72.6 ng/mL and 76.7 ng/mL and 76.0 ng/mL | Mean concentration after long-term storage [1, 7]: 75.1 ng/mL | Concentration after long-term storage ([1]; −80° C. Storage, nominal 80.0 ng/mL, run 35): 79.6 ng/mL and 77.9 ng/mL and 77.2 ng/mL | Mean concentration after long-term storage [1, 8]: 78.2 ng/mL | % Bias [1, 7]: −6.1% | Difference from Fresh (%) [1, 7]: −6.1% | % Bias [1, 8]: −2.2% | Difference from Fresh (%) [1, 8]: −2.2% | Fresh QCs (Batch 34) Mean at Time Zero ([1]; reference for −20° C. Storage, nominal 80.0 ng/mL): 80.0 ng/mL | Fresh QCs (Batch 34) Mean at Time Zero ([1]; reference for −80° C. Storage, nominal 80.0 ng/mL): 80.0 ng/mL | % Bias ([2]; Storage period 1 Day at −20° C., QC-High, nominal 80.0 ng/mL): −6.7% | % Bias ([2]; Storage period 1 Day at −20° C., QC-LLOQ, nominal 0.500 ng/mL): −0.9% | % Bias ([2]; Storage period 1 Day at −20° C., QC-Mid, nominal 8.00 ng/mL): −5.9% | Mean concentration after frozen (−20° C.) storage ([2]; Storage period 1 Day, QC-High, nominal 80.0 ng/mL): 74.7 ng/mL | Mean concentration after frozen (−20° C.) storage ([2]; Storage period 1 Day, QC-LLOQ, nominal 0.500 ng/mL): 0.496 ng/mL | Mean concentration after frozen (−20° C.) storage ([2]; Storage period 1 Day, QC-Mid, nominal 8.00 ng/mL): 7.53 ng/mL | % Bias ([2]; Storage period 2 Days at −20° C., QC-High, nominal 80.0 ng/mL): −6.2% | % Bias ([2]; Storage period 2 Days at −20° C., QC-LLOQ, nominal 0.500 ng/mL): 12.1% | % Bias ([2]; Storage period 2 Days at −20° C., QC-Mid, nominal 8.00 ng/mL): −3.6% | Mean concentration after frozen (−20° C.) storage ([2]; Storage period 2 Days, QC-High, nominal 80.0 ng/mL): 75.1 ng/mL | Mean concentration after frozen (−20° C.) storage ([2]; Storage period 2 Days, QC-LLOQ, nominal 0.500 ng/mL): 0.561 ng/mL | Mean concentration after frozen (−20° C.) storage ([2]; Storage period 2 Days, QC-Mid, nominal 8.00 ng/mL): 7.72 ng/mL

% Bias QC-High [1, 9]: −4.7% | % CV QC-High [1, 9]: 3.5% | Difference from Fresh (%) QC-High [1, 9]: −5.5% | Mean concentration QC-High [1, 9]: 76.2 ng/mL | Concentration QC-High ([1]; 1 month −20° C. storage, nominal 80.0 ng/mL, run 35): 73.7 ng/mL and 79.0 ng/mL and 76.0 ng/mL | % Bias QC-High [1, 10]: −2.7% | % CV QC-High [1, 10]: 4.4% | Difference from Fresh (%) QC-High [1, 10]: −3.6% | Mean concentration QC-High [1, 10]: 77.8 ng/mL | Concentration QC-High ([1]; 1 month −80° C. storage, nominal 80.0 ng/mL, run 35): 80.2 ng/mL and 79.4 ng/mL and 73.9 ng/mL | Long-term stability in untreated human saliva [1]: up to 1 month | Stability in Untreated Human Saliva ([1]; at −20° C.): 1 Month | Stability in Untreated Human Saliva ([1]; at −80° C.): 1 Month | Fresh QCs (Batch 34) Mean at Time Zero, QC-High ([1]; reference for −20° C. storage, nominal 80.0 ng/mL): 80.7 ng/mL | Fresh QCs (Batch 34) Mean at Time Zero, QC-High ([1]; reference for −80° C. storage, nominal 80.0 ng/mL): 80.7 ng/mL | Short-term stability in cholestyramine-treated human saliva [2]: up to 2 days | Stability in Treated Human Saliva [2]: 2 days | % Bias [2, 11]: −1.3% | Concentration, Mean [2, 11]: 79.0 ng/mL | % Bias [2, 12]: 10.3% | Concentration, Mean [2, 12]: 0.551 ng/mL | % Bias [2, 13]: −2.5% | Concentration, Mean [2, 13]: 7.80 ng/mL | % Bias [2, 14]: −4.4% | Concentration, Mean [2, 14]: 76.5 ng/mL | % Bias [2, 15]: 17.2% | Concentration, Mean [2, 15]: 0.586 ng/mL | % Bias [2, 16]: −2.9% | Concentration, Mean [2, 16]: 7.77 ng/mL
SMILES: C[C@H](CCC(=O)NCCS(=O)(=O)O)[C@H]1CC[C@H]2[C@@H]3CC[C@@H]4C[C@H](O)CC[C@]4(C)[C@H]3C[C@H](O)[C@]12C [Taurodeoxycholic Acid, Taurodeoxycholic acid]
Concentration [2, 11]: 78.6 ng/mL and 82.0 ng/mL and 76.9 ng/mL and 78.5 ng/mL | Concentration [2, 12]: 0.539 ng/mL and 0.570 ng/mL and 0.536 ng/mL and 0.560 ng/mL | Concentration [2, 13]: 7.71 ng/mL and 7.90 ng/mL and 7.81 ng/mL and 7.77 ng/mL | Concentration [2, 14]: 73.7 ng/mL and 76.5 ng/mL and 76.2 ng/mL and 79.5 ng/mL | Concentration [2, 15]: 0.596 ng/mL and 0.592 ng/mL and 0.555 ng/mL and 0.601 ng/mL | Concentration [2, 16]: 7.19 ng/mL and 8.02 ng/mL and 8.13 ng/mL and 7.72 ng/mL

Short-term stability in cholestyramine-treated human saliva [2]: up to 2 days | Stability in Treated Human Saliva [2]: 2 days
SMILES: C[C@H](CCC(=O)O)[C@H]1CC[C@H]2[C@@H]3CC[C@@H]4C[C@H](O)CC[C@]4(C)[C@H]3CC[C@]12C [Lithocholic Acid, Lithocholic acid]
